Results published in patent publication US6562759B1, “Substituted phenyl uracils” (Bayer Aktiengesellschaft, priority 1999, dated 2003).

Experiments:
weeds [1] = assay: Post-emergence Test; type: in vivo; settings: test plants of height 5-15 cm sprayed, rated after three weeks vs untreated control
Protocol: Post-emergence Test Solvent: 5 parts by weight of acetone Emulsifier: 1 part by weight of alkylaryl polyglycol ether To produce a suitable preparation of active compound, 1 part by weight of active compound is mixed with the stated amount of solvent, the stated amount of emulsifier is added and the concentrate is diluted with water to the desired concentration. Test plants which have a height of 5-15 cm are sprayed with the preparation of active compound such that the particular amounts of active compound desired are applied per unit area. The concentration of the spray liquor is chosen so that the particular amounts of active compound desired are applied in 1000 l of water/ha. After three weeks, the degree of damage to the plants is rated in % damage in comparison to the development of the untreated control. The figures denote: 0%=no effect (like untreated control) 100%=total destruction

weeds [2] = assay: Pre-emergence Test; type: in vivo; settings: soil sprayed about 24 hours after sowing, rated after three weeks vs untreated control
Protocol: Pre-emergence Test Solvent: 5 parts by weight of acetone Emulsifier 1 part by weight of alkylaryl polyglycol ether To produce a suitable preparation of active compound, 1 part by weight of active compound is mixed with the stated amount of solvent, the stated amount of emulsifier is added and the concentrate is diluted with water to the desired concentration. Seeds of the test plants are sown in normal soil. After about 24 hours, the soil is sprayed with the preparation of active compound such that the particular amount of active compound desired is applied per unit area. The concentration of the spray liquor is chosen so that the particular amount of active compound desired is applied in 1000 litres of water per hectare. After three weeks, the degree of damage to the plants is rated in % damage in comparison to the development of the untreated control. The figures denote: 0%=no effect (like untreated control) 100%=total destruction

In the case of `Cn1c(C(F)(F)F)cc(=O)n(-c2cc(C3OCCO3)c(C#N)cc2F)c1=O` [Preparation Example 1, 1-[4-cyano-2-fluoro-5-(1,3-dioxolan-2-yl)-phenyl]-3,6-dihydro-2,6-dioxo-3-methyl-4-trifluoromethyl-1(2H)-pyrimidine], the “activity against weeds (degree of damage to the plants)” value (weeds [1]) is reported as “very strong activity against weeds” and the “activity against weeds (degree of damage to the plants)” value (weeds [2]) is reported as “very strong activity against weeds”.
